Data on 14 compounds can be found in patent US7119113B2, “Oxazoles as mGluR1 enhancers” (Hoffmann-La Roche Inc., priority 2002, dated 2006).

The target in one data set is T1, rat mGlu 1a receptor (Rattus norvegicus, UniProt P23385).
T1 construct: expressed in transfected cells; host or cells: EBNA cells (transient transfection)
Put plainly: [Ca2+]i measurement (FLIPR) on mGlu 1a transfected EBNA cells (headed "Binding Assay"). Type of data set: cell-based. The following applies: rat mGlu 1a transiently transfected EBNA cells, Fluo-3 AM, activation (agonist) curves. Here is the method: The compounds of the present invention are group I mGlu receptor agonists. The compounds show activities, as measured in the below binding assay, of 0.2 μM or less.
cDNA encoding rat mGlu 1a receptor obtained from Prof. S. Nakanishi (Kyoto, Japan) was transiently transfected into EBNA cells using a procedure described by Schlaeger et al, New Dev. New Appl. Anim. Cell Techn., Proc. ESACT Meet., 15, (1998), 105–112 and 117–120. [Ca^2+]i measurements were performed on mGlu 1a transfected EBNA cells after incubation of the cells with Fluo-3 AM (0.5 μM final concentration) for 1 hour at 37° C. followed by 4 washes with assay buffer (DMEM supplemented with Hank's salt and 20 mM HEPES. [Ca^2+]i measurements were done using a fluorometric imaging plate reader (FLIPR, Molecular Devices Corporation, La Jolla, Calif., USA). When compounds were evaluated as antagonists they were tested against 10 μM glutamate as agonist.
The activation (agonists) curves were fitted with a four parameter logistic equation giving EC50, and Hill coefficient using the iterative non linear curve fitting software Origin (Microcal Software Inc., Northampton, Mass., USA).
In the table below are shown specific EC50 values of compounds of formula I: […]

A short description of data set [1]: Microsome incubation, rat liver microsomes (metabolic stability). The following applies: for MAB (rat): maximal achievable bioavailability = 1−E (hepatic extraction ratio), extrapolated from rat microsomal clearance; for microsomal CLint at 10 μM: pH 7.4, rat liver microsomes 1.0 mg prot/mL, test compound 10 μM, 37° C., NADPH regenerating system, calculated from in vitro half-life, read-out: Intrinsic clearance (rat). In kind it is in vitro ADME. Here is the method: (§1) The compounds of formula I of the present invention are further characterized by high metabolic stability. This parameter is a prerequisite for good bioavailability, which is necessary to obtain medicaments with acceptable in-vivo activity. The metabolic stability has been tested by the following method:
(§2) Incubation mixtures consisted of liver microsomes (rat 1.0 mg prot/mL or human 2.0 mg prot/mL), test compound 10 μM, MgCl2 (3.3 mM), and an NADPH regenerating system consisting of glucose-6-phosphate dehydrogenase, NADPH and glucose-6-phosphate (equivalent to 1 mM NADPH) in a total volume of 1.0 mL of potassium phosphate buffer 100 mM pH 7.4. Reactions were initiated by addition of the NADPH regenerating system at 37° C. At the time of 1, 5, 9, 13, 17, 21, 25, and 29 min a 5 μL aliquot was directly analysed on a HPLC-MS/MS system consisting of a HP 1100 quaternary pump with degasser and a PE-Sciex API-2000 MS/MS spectrometer. The analytical column was a Waters Symmetry Shield RP8 (2.1*50 mm with a […] particle size). A polarity non linear gradient from phase A (MeOH/Ac. Form.1% 20/80) to phase B (MeOH) was applied for a total run time of 2 minutes at a flow rate of 0.25 mL/min. The PE-Sciex API-2000 MS/MS spectrometer was used for detection of the parent compound. In vivo metabolic clearance was predicted according to published procedures [Houston, Biochem. Pharmacol. 47:1469–1479 (1994)]. In brief, the intrinsic clearance (Clearance, see table below) is calculated from the measured in vitro half-life taking into account incubation volume and microsomal protein used for the in vitro incubation. The intrinsic clearance is expressed in terms of μl/min/mg microsomal protein. For in vivo extrapolations, the hepatic extraction ratio (E) was calculated. Here it is reported the % MAB value which is equal to 1−E. The MAB (maximal achievable bioavailability) values express the maximal bioavailability that one can achieve with the given clearance values.

Data set [2] can be described thus: Microsome incubation, human liver microsomes (metabolic stability). In kind it is in vitro ADME. The following applies: for MAB (human): maximal achievable bioavailability = 1−E (hepatic extraction ratio), extrapolated from human microsomal clearance; for microsomal CLint at 10 μM: pH 7.4, human liver microsomes 2.0 mg prot/mL, test compound 10 μM, 37° C., NADPH regenerating system, calculated from in vitro half-life, read-out: Intrinsic clearance (human). How it is done: as §1, §2

Molecules are shown by their SMILES.

T1 sequence (P23385 19-1199): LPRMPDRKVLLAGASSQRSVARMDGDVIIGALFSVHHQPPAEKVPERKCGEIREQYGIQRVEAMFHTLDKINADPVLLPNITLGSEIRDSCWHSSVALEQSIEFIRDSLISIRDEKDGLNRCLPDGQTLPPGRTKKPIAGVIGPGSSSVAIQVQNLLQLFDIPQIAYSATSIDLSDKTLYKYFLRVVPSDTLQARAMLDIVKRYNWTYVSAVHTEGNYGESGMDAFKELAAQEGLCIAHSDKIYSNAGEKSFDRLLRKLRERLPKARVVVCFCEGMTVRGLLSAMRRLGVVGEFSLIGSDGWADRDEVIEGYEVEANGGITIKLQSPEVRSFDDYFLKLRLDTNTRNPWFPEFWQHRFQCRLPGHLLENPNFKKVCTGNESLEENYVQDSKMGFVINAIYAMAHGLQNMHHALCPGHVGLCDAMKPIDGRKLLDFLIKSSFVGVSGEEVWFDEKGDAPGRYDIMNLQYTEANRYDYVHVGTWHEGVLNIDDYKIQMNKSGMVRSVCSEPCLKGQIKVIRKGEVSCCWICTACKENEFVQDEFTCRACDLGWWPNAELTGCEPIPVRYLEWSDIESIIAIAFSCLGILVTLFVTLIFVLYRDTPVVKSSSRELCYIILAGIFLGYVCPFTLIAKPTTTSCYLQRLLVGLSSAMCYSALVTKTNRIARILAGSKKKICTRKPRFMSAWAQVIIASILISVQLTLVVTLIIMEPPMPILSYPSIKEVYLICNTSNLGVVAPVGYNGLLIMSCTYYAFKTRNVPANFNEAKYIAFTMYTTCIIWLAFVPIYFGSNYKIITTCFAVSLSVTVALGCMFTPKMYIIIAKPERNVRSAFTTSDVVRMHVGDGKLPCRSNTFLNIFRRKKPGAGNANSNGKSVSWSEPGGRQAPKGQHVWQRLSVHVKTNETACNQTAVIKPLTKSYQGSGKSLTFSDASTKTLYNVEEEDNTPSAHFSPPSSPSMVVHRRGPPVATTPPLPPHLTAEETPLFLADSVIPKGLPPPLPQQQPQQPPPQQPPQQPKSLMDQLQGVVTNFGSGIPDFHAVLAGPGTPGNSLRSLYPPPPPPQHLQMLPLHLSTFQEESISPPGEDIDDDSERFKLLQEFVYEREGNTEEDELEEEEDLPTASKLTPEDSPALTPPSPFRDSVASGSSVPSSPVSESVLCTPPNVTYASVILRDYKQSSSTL

For `O=C(Nc1nc(C(F)(F)F)co1)C1c2ccccc2Oc2ccc(F)cc21` (racemic) [Example 3, (RS)-2-Fluoro-9H-xanthene-9-carboxylic Acid (4-trifluoromethyl-oxazol-2-yl)-amide], the melting point (commonly the temperature, or range, at which the solid turns liquid) worked out at 241 °C. Moreover, at rat mGlu 1a receptor, the half-maximal effective concentration (EC50) (in general, the concentration at which the effect is half-maximal) came out at 0.055 µM. For the same compound, in data set [1], the “MAB (rat)” value is 32% and the microsomal CLint at 10 μM is 61.4 µL/min/mg. Moreover, in data set [2], the “MAB (human)” value was 61% and the microsomal CLint at 10 μM was 9.9 µL/min/mg.

Take `O=C(Nc1ncc(C(F)(F)F)o1)C1c2ccccc2Oc2ccc(F)cc21` (racemic) [Example 4, (RS)-2-Fluoro-9H-xanthene-9-carboxylic Acid (5-trifluoromethyl-oxazol-2-yl)-amide]: the melting point is 217 °C. In addition, it took 0.02 µM to reach a half-maximal effect on rat mGlu 1a receptor (EC50). Further, in data set [1], the “MAB (rat)” value is reported as 43% and the microsomal CLint at 10 μM was 40.2 µL/min/mg. Further, in data set [2], the “MAB (human)” value is 45% and the microsomal CLint at 10 μM was 18.8 µL/min/mg.

In turn, `O=C(Nc1nc(C(F)(F)F)co1)C1c2ccccc2Oc2cc(F)ccc21` (racemic) [Example 5, (RS)-3-Fluoro-9H-xanthene-9-carboxylic Acid (4-trifluoromethyl-oxazol-2-yl)-amide] gave a melting point of 221 °C. On rat mGlu 1a receptor, this compound had a 50% effective concentration (EC50) of 0.04 µM. Also, in data set [1], the “MAB (rat)” value is recorded as 46% and the microsomal CLint at 10 μM is 34.3 µL/min/mg. For the same compound, in data set [2], the “MAB (human)” value is 78% and the microsomal CLint at 10 μM is 4.3 µL/min/mg.

The compound `O=C(Nc1ncc(C(F)(F)F)o1)C1c2ccccc2Oc2cc(F)ccc21` (racemic) [Example 6, (RS)-3-Fluoro-9H-xanthene-9-carboxylic Acid (5-trifluoromethyl-oxazol-2-yl)-amide] returned a melting point of 250 °C. Further, in data set [1], the “MAB (rat)” value is reported as 52% and the microsomal CLint at 10 μM is 27.8 µL/min/mg. Also, in data set [2], the “MAB (human)” value is 63% and the microsomal CLint at 10 μM is 9.2 µL/min/mg.

`O=C(Nc1nc(C(F)(F)F)co1)C1c2ccccc2Oc2c(F)cccc21` (racemic) [Example 7, (RS)-4-Fluoro-9H-xanthene-9-carboxylic Acid (4-trifluoromethyl-oxazol-2-yl)-amide] showed a melting point of 233 °C. At rat mGlu 1a receptor, this compound returned an EC50 of 0.016 µM. Moreover, in data set [1], the “MAB (rat)” value is recorded as 48% and the microsomal CLint at 10 μM is 32.8 µL/min/mg. Further, in data set [2], the “MAB (human)” value was 67% and the microsomal CLint at 10 μM is 7.9 µL/min/mg.

Regarding `O=C(Nc1ncc(C(F)(F)F)o1)C1c2ccccc2Oc2c(F)cccc21` (racemic) [Example 8, (RS)-4-Fluoro-9H-xanthene-9-carboxylic Acid (5-trifluoromethyl-oxazol-2-yl)-amide], the melting point was found to be 228 °C. The compound further showed an EC50 on rat mGlu 1a receptor of 0.021 µM. In data set [1], the “MAB (rat)” value is recorded as 49% and the microsomal CLint at 10 μM was 31.8 µL/min/mg. Besides, in data set [2], the “MAB (human)” value was 45% and the microsomal CLint at 10 μM was 19.2 µL/min/mg.

Consider `O=C(Nc1nc(C(F)(F)F)co1)C1c2ccccc2Oc2ccc(Cl)cc21` (racemic) [Example 13, (RS)-2-Chloro-9H-xanthene-9-carboxylic Acid (4-trifluoromethyl-oxazol-2-yl)-amide], for which the melting point was 235 °C. The compound further registered an EC50 at rat mGlu 1a receptor of 0.015 µM.

The compound `O=C(Nc1nc(C(F)(F)F)co1)C1c2ccccc2Oc2c(Cl)cccc21` (racemic) [Example 14, (RS)-4-Chloro-9H-xanthene-9-carboxylic Acid (4-trifluoromethyl-oxazol-2-yl)-amide] had a melting point of 212 °C. In addition, the concentration for a half-maximal effect (EC50) on rat mGlu 1a receptor stood at 0.093 µM.

As to `O=C(Nc1nc(C(F)(F)F)co1)C1c2ccccc2Oc2ccccc21` [Example 1, 9H-Xanthene-9-carboxylic acid (4-trifluoromethyl-oxazol-2-yl)-amide], the midpoint of the response on rat mGlu 1a receptor, the EC50, lay at 0.056 µM. Also, in data set [1], the “MAB (rat)” value is 25% and the microsomal CLint at 10 μM was 108 µL/min/mg. In data set [2], the “MAB (human)” value is on record as 68% and the microsomal CLint at 10 μM is 8 µL/min/mg.

In the case of `O=C(Nc1ncc(C(F)(F)F)o1)C1c2ccccc2Oc2ccccc21` [Example 2, 9H-Xanthene-9-carboxylic Acid (5-trifluoromethyl-oxazol-2-yl)-amide], the melting point was found to be 218 °C. Further, the EC50 at rat mGlu 1a receptor was determined as 0.038 µM. Further, in data set [1], the “MAB (rat)” value is 37% and the microsomal CLint at 10 μM is 50 µL/min/mg. Moreover, in data set [2], the “MAB (human)” value was 68% and the microsomal CLint at 10 μM was 14 µL/min/mg.

`O=C(Nc1nc(C(F)(F)F)co1)C1c2cc(F)ccc2Oc2ccc(F)cc21` [Example 9, 2,7-Difluoro-9H-xanthene-9-carboxylic Acid (4-trifluoromethyl-oxazol-2-yl)-amide] had a melting point of 259 °C. Besides, the EC50 on rat mGlu 1a receptor amounted to 0.044 µM. In addition, in data set [1], the “MAB (rat)” value was 77% and the microsomal CLint at 10 μM was 8.9 µL/min/mg. For the same compound, in data set [2], the “MAB (human)” value is 85% and the microsomal CLint at 10 μM is 2.7 µL/min/mg.

In turn, `O=C(Nc1ncc(C(F)(F)F)o1)C1c2cc(F)ccc2Oc2ccc(F)cc21` [Example 10, 2,7-Difluoro-9H-xanthene-9-carboxylic Acid (5-trifluoromethyl-oxazol-2-yl)-amide] displayed a melting point of 232 °C. Besides, the EC50 on rat mGlu 1a receptor stood at 0.124 µM. In addition, in data set [1], the “MAB (rat)” value is listed as 54% and the microsomal CLint at 10 μM was 26.1 µL/min/mg. Further, in data set [2], the “MAB (human)” value was 73% and the microsomal CLint at 10 μM was 5.6 µL/min/mg.

Turning to `O=C(Nc1nc(C(F)(F)F)co1)C1c2ccc(F)cc2Oc2cc(F)ccc21` [Example 11, 3,6-Difluoro-9H-xanthene-9-carboxylic Acid (4-trifluoromethyl-oxazol-2-yl)-amide], the melting point turned out to be 265 °C. On rat mGlu 1a receptor, this compound gave an EC50 of 0.003 µM. Further, in data set [1], the “MAB (rat)” value is listed as 63% and the microsomal CLint at 10 μM is 17.6 µL/min/mg. Moreover, in data set [2], the “MAB (human)” value is 59% and the microsomal CLint at 10 μM was 11.1 µL/min/mg.

`O=C(Nc1ncc(C(F)(F)F)o1)C1c2ccc(F)cc2Oc2cc(F)ccc21` [Example 12, 3,6-Difluoro-9H-xanthene-9-carboxylic Acid (5-trifluoromethyl-oxazol-2-yl)-amide] registered a melting point of 249 °C. The compound further registered a concentration giving a half-maximal response (EC50) at rat mGlu 1a receptor of 0.025 µM. For the same compound, in data set [1], the “MAB (rat)” value is 72% and the microsomal CLint at 10 μM was 11.6 µL/min/mg. Also, in data set [2], the “MAB (human)” value is listed as 63% and the microsomal CLint at 10 μM is 9.1 µL/min/mg.
